Here are results for seven molecules from patent publication US4908314A (priority 1987, dated 1990).

One experiment concerns the target T1, Factor VIIIa (Homo sapiens, UniProt P00451).
T1 sequence (P00451 20-391 limits assumed): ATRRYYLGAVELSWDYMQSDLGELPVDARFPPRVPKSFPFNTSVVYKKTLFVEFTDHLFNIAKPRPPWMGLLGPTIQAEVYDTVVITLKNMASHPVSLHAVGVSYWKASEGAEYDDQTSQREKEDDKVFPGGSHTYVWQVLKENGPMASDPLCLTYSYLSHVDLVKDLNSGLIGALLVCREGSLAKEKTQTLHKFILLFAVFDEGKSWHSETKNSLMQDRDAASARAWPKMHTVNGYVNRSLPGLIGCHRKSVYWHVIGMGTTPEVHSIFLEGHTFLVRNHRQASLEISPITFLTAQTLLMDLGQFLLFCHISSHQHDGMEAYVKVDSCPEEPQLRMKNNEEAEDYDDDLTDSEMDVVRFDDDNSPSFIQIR
T1 sequence (P00451 392-759 limits assumed): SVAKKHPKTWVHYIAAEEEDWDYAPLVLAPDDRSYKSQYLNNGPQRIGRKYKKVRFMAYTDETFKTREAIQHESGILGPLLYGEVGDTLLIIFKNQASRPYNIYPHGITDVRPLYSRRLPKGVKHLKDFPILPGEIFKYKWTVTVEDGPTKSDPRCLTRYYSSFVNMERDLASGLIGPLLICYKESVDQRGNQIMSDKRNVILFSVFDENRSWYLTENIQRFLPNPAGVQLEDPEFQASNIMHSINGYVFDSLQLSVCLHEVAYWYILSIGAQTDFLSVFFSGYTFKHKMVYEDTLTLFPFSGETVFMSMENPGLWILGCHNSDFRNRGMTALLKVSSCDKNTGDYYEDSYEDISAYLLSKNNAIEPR
T1 sequence (P00451 1709-2351 limits assumed): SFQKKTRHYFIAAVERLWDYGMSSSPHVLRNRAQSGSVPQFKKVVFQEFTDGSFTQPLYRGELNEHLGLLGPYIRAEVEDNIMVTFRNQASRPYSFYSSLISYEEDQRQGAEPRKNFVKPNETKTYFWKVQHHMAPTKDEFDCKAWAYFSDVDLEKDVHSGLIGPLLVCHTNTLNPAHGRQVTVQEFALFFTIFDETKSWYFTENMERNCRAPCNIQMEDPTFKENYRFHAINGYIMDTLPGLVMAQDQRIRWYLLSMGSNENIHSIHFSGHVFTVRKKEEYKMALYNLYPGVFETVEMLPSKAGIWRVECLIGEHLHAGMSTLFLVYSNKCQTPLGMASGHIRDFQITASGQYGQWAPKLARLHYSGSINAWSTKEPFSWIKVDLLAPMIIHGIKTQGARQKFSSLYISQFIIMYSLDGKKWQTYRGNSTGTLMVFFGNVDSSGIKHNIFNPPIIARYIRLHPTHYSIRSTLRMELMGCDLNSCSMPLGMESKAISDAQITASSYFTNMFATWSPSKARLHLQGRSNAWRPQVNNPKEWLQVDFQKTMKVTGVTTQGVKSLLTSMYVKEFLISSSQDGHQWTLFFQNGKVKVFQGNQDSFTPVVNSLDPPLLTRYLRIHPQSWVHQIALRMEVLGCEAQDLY
In words: Inactivation of Factor VIIIa in vitro. The following applies: picomolar concentrations. The class given is biochemical.

In experiment [1] the test system is plasminogen activator inhibitor (PAI). Nature of the experiment: Neutralization of plasminogen activator inhibitor activity in vitro. The class given is biochemical.
Experiment [2] in a line: Amidolysis of chromogenic substrates. The class given is biochemical.
Experiment [3] addresses protein C activator of the present invention (Agkistrodon contortrix contortrix, UniProt P09872). In words: biochemical. The class given is biochemical.
Experiment [4] deals with protein C activator of Klein et al. The settings on record: cited from earlier work.
Another experiment concerns Protac®. The following applies: cited from earlier work.
Experiment [5] relates to protein C activator of the present invention. Nature of the experiment: biochemical. The class given is biochemical, Agkistrodon contortrix contortrix.

protein C activator of the present invention (Agkistrodon contortrix contortrix, UniProt P09872), sequence (P09872 whole entry, looked up): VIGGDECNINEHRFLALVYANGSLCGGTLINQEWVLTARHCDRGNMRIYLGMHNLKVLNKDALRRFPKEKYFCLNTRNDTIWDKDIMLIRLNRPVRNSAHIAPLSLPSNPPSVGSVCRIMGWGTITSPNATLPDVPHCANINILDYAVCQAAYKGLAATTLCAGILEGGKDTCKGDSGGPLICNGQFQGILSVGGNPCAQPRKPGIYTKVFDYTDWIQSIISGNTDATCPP

Consider activated protein C, for which the “inactivation of Factor VIIIa” value on Factor VIIIa is listed as “rapid inactivation”. Moreover, in experiment [1], the “neutralization of PAI activity” value is “neutralization”. For the same molecule, in experiment [2], the “activity of amidolysis of chromogenic substrates compared with thrombin-activated protein C” value is reported as “approximately the same activity”.

Turning to `N=C(N)Nc1ccc(C(=O)Oc2ccc([N+](=O)[O-])cc2)cc1` [p-nitrophenyl, p-guanidinobenzoate], in experiment [3], the “Inhibition of activity of the activator by serine protease inhibitors” value (shortened to “Inhibition of activity of the activator”) is recorded as “inhibited”.

In the case of Antithrombin III, in experiment [4], the “Inhibition of activity of the Klein et al activator” value is “no effect”.

For the molecule `O=S(=O)(F)Cc1ccccc1` [phenylmethylsulphonylfluoride], in experiment [3], the “Inhibition of activity of the activator” value is “inhibited”.

Turning to `NC(=O)CI` [iodoacetamide], the “Inhibition of activity of Protac” value with Protac® is recorded as “not inhibited”.

For the molecule `NC(N)=NCCC[C@H](NC(=O)[C@@H]1CCCN1C(=O)[C@H](N)Cc1ccccc1)C(=O)CCl` [D-Phe-Pro-Arg-chloromethylketone], in experiment [3], the “Inhibition of activity of the activator” value is on record as “inhibited” and the affinity corresponds to a Ki of 34 µM. Besides, in experiment [5], the “fold higher Ki than the Ki of thrombin inhibition” value is “approximately 500 fold”.

B1: soybean trypsin inhibitor: serine protease inhibitor protein (protein, UniProt P01070 25-205, looked up)
Trypsin inhibitor A: DFVLDNEGNPLENGGTYYILSDITAFGGIRAAPTGNERCPLTVVQSRNELDKGIGTIISSPYRIRFIAEGHPLSLKFDSFAVIMLCVGIPTEWSVVEDLPEGPAVKIGENKDAMDGWFRLERVSDDEFNNYKLVFCPQQAEDDKCGDIGISIDHDDGTRRLVVSKNKPLVVQFQKLDKESL
With B1, the “Inhibition of activity of the activator” value in experiment [3] was “inhibited”. In addition, in experiment [4], the “Inhibition of activity of the Klein et al activator” value was “inhibited”.
